Assay results published in patent US7135467B2, “HIV integrase inhibitors” (priority 2003, dated 2006).

Biological target: T1, HIV-integrase (recombinant integrase) (Human immunodeficiency virus type 1 group M subtype B, UniProt P12497)
T1 construct: Recombinant integrase (0.26 ng) was incubated with the beads
Assay: HIV-Integrase Inhibition Activity (SPA bead strand-transfer assay)
Type: biochemical
Details: recombinant integrase on biotin labeled substrate DNA/SPA beads, P33 labeled target DNA; read-out: Activity (IC50 against HIV-integrase)
Description: To evaluate in-vitro activity against HIV-integrase, 5 pmole of biotin labeled substrate DNA was bound to 100 μg of Streptavidin coated PVT SPA beads (Amersham Pharmacia Biotech). Recombinant integrase (0.26 ng) was incubated with the beads for 90 min at 37° C. Unbound enzyme was removed by washing the complex followed by addition of inhibitors and 0.1 fmol of P33 labeled target DNA. The reaction was stopped by adding EDTA to a final concentration of 10 mM. Samples were counted in TopCountNXT (Packard) and the CPM was used as a measure of integration. The reaction condition was as described in A. Engelman and R. Craigie, J. Virol. 69, 5908–5911 (1995). The sequences of substrate and target DNA were described in Nucleic Acid Research 22, 1121–1122 (1994). Activity equal to A refers to a compound having IC50=0.003 to 0.10 μM while B and C denote compounds the following IC50=0.1 to 1.0 μM and IC50≧1.0 μM respectively.

Row | SMILES | IC50
1 | Cn1c(N2CCCCS2(=O)=O)nc(C(=O)NCc2ccco2)c(O)c1=O [Compound 33, N-(2-furanylmethyl)-1,6-dihydro-5-hydroxy-1-methyl-6-oxo-2-(tetrahydro-1,1-dioxido-2H-1,2-thiazin-2-yl)-4-pyrimidinecarboxamide] | 100 to 1000 nM
2 | Cc1cc(CNC(=O)c2nc(N3CCC3)n(C)c(=O)c2O)ccc1F [Compound 93, 2-(1-azetidinyl)-N-[(4-fluoro-3-methylphenyl)methyl]-1,6-dihydro-5-hydroxy-1-methyl-6-oxo-4-pyrimidinecarboxamide] | 3 to 100 nM
3 | Cc1cc(CNC(=O)c2nc(N3CCN(CCO)CC3)n(C)c(=O)c2O)ccc1F [Compound 68, N-[(4-fluoro-3-methylphenyl)methyl]-1,6-dihydro-5-hydroxy-2-[4-(2-hydroxyethyl)-1-piperazinyl]-1-methyl-6-oxo-4-pyrimidinecarboxamide] | 3 to 100 nM
4 | COc1ccc(CCNC(=O)c2nc(N3CCCCS3(=O)=O)n(C)c(=O)c2O)cc1 [Compound 27, 1,6-dihydro-5-hydroxy-N-[2-(4-methoxyphenyl)ethyl]-1-methyl-6-oxo-2-(tetrahydro-1,1-dioxido-2H-1,2-thiazin-2-yl)-4-pyrimidinecarboxamide] | ≥ 1000 nM
5 | Cn1c(N2CCCCS2(=O)=O)nc(C(=O)NCc2cc(Cl)cc(Cl)c2)c(O)c1=O [Compound 12, N-[(3,5-dichlorophenyl)methyl]-1,6-dihydro-5-hydroxy-1-methyl-6-oxo-2-(tetrahydro-1,1-dioxido-2H-1,2-thiazin-2-yl)-4-pyrimidinecarboxamide] | 3 to 100 nM
6 | Cc1cc(CNC(=O)c2nc(N3CCNCC3)n(C)c(=O)c2O)ccc1F [Compound 70, N-[(4-fluoro-3-methylphenyl)methyl]-1,6-dihydro-5-hydroxy-1-methyl-6-oxo-2-(1-piperazinyl)-4-pyrimidinecarboxamide] | 3 to 100 nM
7 | Cn1c(N2Cc3ccc(F)cc3C2=O)nc(C(=O)NCc2ccc(F)cc2)c(O)c1=O [Compound 102, 2-(6-fluoro-1,3-dihydro-1-oxo-2H-isoindol-2-yl)-N-[(4-fluorophenyl)methyl]-1,6-dihydro-5-hydroxy-1-methyl-6-oxo-4-pyrimidinecarboxamide] | 3 to 100 nM
8 | Cn1c(N2CCCCS2(=O)=O)nc(C(=O)NCc2ccc(C(F)(F)F)cc2)c(O)c1=O [Compound 32, 1,6-dihydro-5-hydroxy-1-methyl-6-oxo-2-(tetrahydro-1,1-dioxido-2H-1,2-thiazin-2-yl)-N-[[4-(trifluoromethyl)phenyl]methyl]-4-pyrimidinecarboxamide] | 100 to 1000 nM
9 | Cn1c(-n2ncccc2=O)nc(C(=O)NCc2ccc(F)cc2)c(O)c1=O [Compound 100, N-[(4-fluorophenyl)methyl]-1,6-dihydro-5-hydroxy-1-methyl-6-oxo-2-(6-oxo-1(6H)-pyridazinyl)-4-pyrimidinecarboxamide] | 100 to 1000 nM
10 | Cn1c(N2CCCCC2CO)nc(C(=O)NCc2ccc(F)cc2)c(O)c1=O (centres unmarked) [Compound 96, 4-pyrimidineN-[(4-fluorophenyl)methyl]-1,6-dihydro-5-hydroxy-2-[2-(hydroxymethyl)-1-piperidinyl]-1-methyl-6-oxo-carboxamide] | 100 to 1000 nM
11 | Cn1c(N2CCCCS2(=O)=O)nc(C(=O)NCc2ccc(Cl)cc2Cl)c(O)c1=O [Compound 43, N-[(2,4-dichlorophenyl)methyl]-1,6-dihydro-5-hydroxy-1-methyl-6-oxo-2-(tetrahydro-1,1-dioxido-2H-1,2-thiazin-2-yl)-4-pyrimidinecarboxamide] | 100 to 1000 nM
12 | Cn1c(N2CCCCS2(=O)=O)nc(C(=O)NCc2ccc(F)c(F)c2)c(O)c1=O [Compound 15, N-[(3,4-difluorophenyl)methyl]-1,6-dihydro-5-hydroxy-1-methyl-6-oxo-2-(tetrahydro-1,1-dioxido-2H-1,2-thiazin-2-yl)-4-pyrimidinecarboxamide] | 3 to 100 nM
13 | Cn1c(N2CCCCS2(=O)=O)nc(C(=O)NCc2cccc(C(F)(F)F)c2)c(O)c1=O [Compound 29, 1,6-dihydro-5-hydroxy-1-methyl-6-oxo-2-(tetrahydro-1,1-dioxido-2H-1,2-thiazin-2-yl)-N-[[3-(trifluoromethyl)phenyl]methyl]-4-pyrimidinecarboxamide] | 3 to 100 nM
14 | CC(=O)N1CCN(c2nc(C(=O)NCc3ccc(F)c(C)c3)c(O)c(=O)n2C)CC1 [Compound 72, 2-(4-acetyl-1-piperazinyl)-N-[(4-fluoro-3-methylphenyl)methyl]-1,6-dihydro-5-hydroxy-1-methyl-6-oxo-4-pyrimidinecarboxamide] | 3 to 100 nM
15 | Cn1c(N2CCCCS2(=O)=O)nc(C(=O)NCc2cc(F)ccc2F)c(O)c1=O [Compound 45, N-[(2,5-difluorophenyl)methyl]-1,6-dihydro-5-hydroxy-1-methyl-6-oxo-2-(tetrahydro-1,1-dioxido-2H-1,2-thiazin-2-yl)-4-pyrimidinecarboxamide] | 100 to 1000 nM
16 | COc1ccc(CNC(=O)c2nc(N3CCCCS3(=O)=O)n(C)c(=O)c2O)c(OC)c1 [Compound 22, N-[(2,4-dimethoxyphenyl)methyl]-1,6-dihydro-5-hydroxy-1-methyl-6-oxo-2-(tetrahydro-1,1-dioxido-2H-1,2-thiazin-2-yl)-4-pyrimidinecarboxamide] | 3 to 100 nM
17 | Cc1ncn(-c2nc(C(=O)NCc3ccc(F)cc3)c(O)c(=O)n2C)n1 [Compound 58, N-[(4-fluorophenyl)methyl]-1,6-dihydro-5-hydroxy-1-methyl-2-(3-methyl-1H-1,2,4-triazol-1-yl)-6-oxo-4-pyrimidinecarboxamide] | 100 to 1000 nM
18 | Cc1ccc(CNC(=O)c2nc(N3CCCCS3(=O)=O)n(C)c(=O)c2O)cc1C [Compound 19, N-[(3,4-dimethylphenyl)methyl]-1,6-dihydro-5-hydroxy-1-methyl-6-oxo-2-(tetrahydro-1,1-dioxido-2H-1,2-thiazin-2-yl)-4-pyrimidinecarboxamide] | 3 to 100 nM
19 | Cn1c(N2CCCCS2(=O)=O)nc(C(=O)NCCc2ccc(Cl)cc2)c(O)c1=O [Compound 26, N-[2-(4-chlorophenyl)ethyl]-1,6-dihydro-5-hydroxy-1-methyl-6-oxo-2-(tetrahydro-1,1-dioxido-2H-1,2-thiazin-2-yl)-4-pyrimidinecarboxamide] | ≥ 1000 nM
20 | Cn1c(N2CCC2)nc(C(=O)NCc2ccc(F)cc2)c(O)c1=O [Compound 92, 2-(1-azetidinyl)-N-[(4-fluorophenyl)methyl]-1,6-dihydro-5-hydroxy-1-methyl-6-oxo-4-pyrimidinecarboxamide] | 3 to 100 nM
21 | COc1cccc(CNC(=O)c2nc(N3CCCCS3(=O)=O)n(C)c(=O)c2O)c1 [Compound 11, 1,6-dihydro-5-hydroxy-N-[(3-methoxyphenyl)methyl]-1-methyl-6-oxo-2-(tetrahydro-1,1-dioxido-2H-1,2-thiazin-2-yl)-4-pyrimidinecarboxamide] | 100 to 1000 nM
22 | CCCN1CCN(c2nc(C(=O)NCc3ccc(F)cc3)c(O)c(=O)n2C)CC1 [Compound 73, N-[(4-fluorophenyl)methyl]-1,6-dihydro-5-hydroxy-1-methyl-6-oxo-2-(4-propyl-1-piperazinyl)-4-pyrimidinecarboxamide] | 3 to 100 nM
23 | Cn1c(N2CCCC2)nc(C(=O)NCc2ccc(F)cc2)c(O)c1=O [Compound 91, N-[(4-fluorophenyl)methyl]-1,6-dihydro-5-hydroxy-1-methyl-6-oxo-2-(1-pyrrolidinyl)-4-pyrimidinecarboxamide] | 3 to 100 nM
